ChEMBL document CHEMBL2021889, “Multipotent MAO and cholinesterase inhibitors for the treatment of Alzheimer's disease: synthesis, pharmacological analysis and molecular modeling of heterocyclic substituted alkyl and cycloalkyl propargyl amine” (Eur J Med Chem, 2012)

Key:
Acetylcholinesterase [1] = target: T1, Acetylcholinesterase (Electrophorus electricus, UniProt O42275)
Description: Inhibition of electric eel AChE using acetylthiocholine iodide as substrate after 15 mins by Ellman's method

[2] = target: T2, Amine oxidase [flavin-containing] B (Rattus norvegicus, UniProt P19643); test: biochemical
T2 sequence (P19643 whole entry): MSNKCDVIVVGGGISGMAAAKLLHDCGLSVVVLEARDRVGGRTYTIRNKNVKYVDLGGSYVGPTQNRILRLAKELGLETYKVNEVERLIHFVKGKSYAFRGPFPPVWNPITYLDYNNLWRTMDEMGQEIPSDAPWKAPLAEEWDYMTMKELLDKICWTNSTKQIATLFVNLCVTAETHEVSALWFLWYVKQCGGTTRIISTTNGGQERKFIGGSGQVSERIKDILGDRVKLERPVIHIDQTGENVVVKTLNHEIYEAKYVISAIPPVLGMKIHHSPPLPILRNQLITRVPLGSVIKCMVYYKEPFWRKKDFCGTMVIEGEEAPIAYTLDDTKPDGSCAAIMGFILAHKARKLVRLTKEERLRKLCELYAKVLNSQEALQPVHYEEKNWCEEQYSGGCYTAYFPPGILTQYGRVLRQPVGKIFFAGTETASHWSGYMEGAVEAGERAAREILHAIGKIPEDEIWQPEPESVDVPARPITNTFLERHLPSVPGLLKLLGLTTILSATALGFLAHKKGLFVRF
Description: Inhibition of mitochondrial MAO-B in rat liver homogenates using [14C]-phenylethylamine as substrate preincubated for 30 mins by liquid scintillation counting

Butyrylcholinesterase [3] = target: T3, Butyrylcholinesterase (Equus caballus, UniProt Q9N1N9)
T3 sequence (Q9N1N9 whole entry): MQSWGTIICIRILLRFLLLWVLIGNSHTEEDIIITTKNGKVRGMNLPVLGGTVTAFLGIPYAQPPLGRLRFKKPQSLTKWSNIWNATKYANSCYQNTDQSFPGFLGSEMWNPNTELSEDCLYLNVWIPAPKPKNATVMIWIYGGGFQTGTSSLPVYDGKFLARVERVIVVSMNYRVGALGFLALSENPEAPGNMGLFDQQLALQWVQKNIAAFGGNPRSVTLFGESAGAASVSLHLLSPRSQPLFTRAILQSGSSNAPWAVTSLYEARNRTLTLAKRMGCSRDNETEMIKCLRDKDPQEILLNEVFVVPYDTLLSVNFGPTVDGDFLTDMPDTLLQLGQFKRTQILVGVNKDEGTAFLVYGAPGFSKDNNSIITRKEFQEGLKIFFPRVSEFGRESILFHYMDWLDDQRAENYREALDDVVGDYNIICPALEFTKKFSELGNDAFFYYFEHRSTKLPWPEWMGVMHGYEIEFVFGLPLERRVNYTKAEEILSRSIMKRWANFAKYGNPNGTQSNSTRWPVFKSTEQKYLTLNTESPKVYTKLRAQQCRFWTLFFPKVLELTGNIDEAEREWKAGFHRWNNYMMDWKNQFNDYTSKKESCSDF
Description: Inhibition of equine serum BChE using butyrylthiocholine iodide as substrate after 15 mins by Ellman's method

[4] = target: T4, Amine oxidase [flavin-containing] A (Rattus norvegicus, UniProt P21396); test: biochemical
T4 sequence (P21396 whole entry): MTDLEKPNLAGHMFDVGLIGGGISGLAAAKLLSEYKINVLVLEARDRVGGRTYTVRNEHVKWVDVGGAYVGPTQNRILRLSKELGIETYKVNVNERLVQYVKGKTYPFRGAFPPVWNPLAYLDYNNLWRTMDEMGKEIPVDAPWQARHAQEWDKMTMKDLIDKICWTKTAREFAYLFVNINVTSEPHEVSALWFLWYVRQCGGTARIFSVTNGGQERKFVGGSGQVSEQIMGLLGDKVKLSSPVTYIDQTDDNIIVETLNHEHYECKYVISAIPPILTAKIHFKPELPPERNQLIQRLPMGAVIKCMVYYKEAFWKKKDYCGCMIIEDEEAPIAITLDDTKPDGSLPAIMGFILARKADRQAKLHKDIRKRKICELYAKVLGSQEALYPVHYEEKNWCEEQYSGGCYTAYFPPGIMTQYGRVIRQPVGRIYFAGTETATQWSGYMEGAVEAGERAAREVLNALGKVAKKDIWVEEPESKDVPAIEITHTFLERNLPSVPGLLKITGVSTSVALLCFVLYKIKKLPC
Description: Inhibition of mitochondrial MAO-A in rat liver homogenates using [14C]-(5-hydroxy-triptamine) as substrate preincubated for 30 mins by liquid scintillation counting

Butyrylcholinesterase [5] = target: T3, Butyrylcholinesterase; test: Competitive inhibition of equine serum BChE using acetylthiocholine as substrate by Lineweaver-Burk plot analysis
Acetylcholinesterase [6] = target: T1, Acetylcholinesterase; test: Non-competitive inhibition of electric eel AChE using acetylthiocholine as substrate by Lineweaver-Burk plot analysis
Acetylcholinesterase [7] = target: Acetylcholinesterase (Homo sapiens, UniProt P22303); test: Inhibition of human recombinant AChE using acetylthiocholine iodide as substrate by Ellman's method
Chain of Acetylcholinesterase (Homo sapiens, UniProt P22303) (P22303 whole entry): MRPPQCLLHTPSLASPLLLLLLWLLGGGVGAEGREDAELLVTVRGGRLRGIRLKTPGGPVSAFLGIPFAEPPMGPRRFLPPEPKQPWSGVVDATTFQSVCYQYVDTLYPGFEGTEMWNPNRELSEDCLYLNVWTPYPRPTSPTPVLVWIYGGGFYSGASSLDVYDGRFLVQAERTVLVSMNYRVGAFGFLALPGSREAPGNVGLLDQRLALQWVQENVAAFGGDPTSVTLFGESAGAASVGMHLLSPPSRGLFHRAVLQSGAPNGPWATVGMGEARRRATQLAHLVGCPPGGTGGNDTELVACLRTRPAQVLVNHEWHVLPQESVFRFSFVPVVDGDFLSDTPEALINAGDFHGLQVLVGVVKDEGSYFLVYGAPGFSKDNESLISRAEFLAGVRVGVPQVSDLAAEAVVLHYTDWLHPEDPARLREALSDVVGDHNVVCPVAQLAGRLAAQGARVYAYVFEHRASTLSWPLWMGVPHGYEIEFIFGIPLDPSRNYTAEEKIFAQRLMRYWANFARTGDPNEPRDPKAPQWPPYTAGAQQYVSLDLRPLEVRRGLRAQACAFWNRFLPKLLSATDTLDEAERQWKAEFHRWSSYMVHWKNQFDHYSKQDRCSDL

Cholinesterase = Cholinesterase (Homo sapiens, UniProt P06276); test: Inhibition of human serum BuChE using butyrylthiocholine iodide as substrate by Ellman's method
Chain of Cholinesterase (P06276 whole entry): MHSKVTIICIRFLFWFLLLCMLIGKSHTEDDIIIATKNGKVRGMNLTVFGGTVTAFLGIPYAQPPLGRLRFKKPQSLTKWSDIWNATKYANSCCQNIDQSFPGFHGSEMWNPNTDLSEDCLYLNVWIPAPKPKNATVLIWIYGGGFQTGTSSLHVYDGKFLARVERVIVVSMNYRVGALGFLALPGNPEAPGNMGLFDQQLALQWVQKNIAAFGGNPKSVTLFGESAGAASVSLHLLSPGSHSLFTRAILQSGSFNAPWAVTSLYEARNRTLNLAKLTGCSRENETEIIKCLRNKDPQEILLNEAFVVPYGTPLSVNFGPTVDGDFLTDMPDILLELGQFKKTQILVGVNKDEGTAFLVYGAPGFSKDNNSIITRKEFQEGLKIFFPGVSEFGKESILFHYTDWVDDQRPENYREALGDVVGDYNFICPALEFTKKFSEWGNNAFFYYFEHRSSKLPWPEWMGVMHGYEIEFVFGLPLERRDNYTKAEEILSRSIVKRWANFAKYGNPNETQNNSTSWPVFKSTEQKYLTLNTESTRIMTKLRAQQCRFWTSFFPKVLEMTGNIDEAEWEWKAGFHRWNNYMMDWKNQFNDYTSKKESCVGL

T1 sequence (O42275 whole entry): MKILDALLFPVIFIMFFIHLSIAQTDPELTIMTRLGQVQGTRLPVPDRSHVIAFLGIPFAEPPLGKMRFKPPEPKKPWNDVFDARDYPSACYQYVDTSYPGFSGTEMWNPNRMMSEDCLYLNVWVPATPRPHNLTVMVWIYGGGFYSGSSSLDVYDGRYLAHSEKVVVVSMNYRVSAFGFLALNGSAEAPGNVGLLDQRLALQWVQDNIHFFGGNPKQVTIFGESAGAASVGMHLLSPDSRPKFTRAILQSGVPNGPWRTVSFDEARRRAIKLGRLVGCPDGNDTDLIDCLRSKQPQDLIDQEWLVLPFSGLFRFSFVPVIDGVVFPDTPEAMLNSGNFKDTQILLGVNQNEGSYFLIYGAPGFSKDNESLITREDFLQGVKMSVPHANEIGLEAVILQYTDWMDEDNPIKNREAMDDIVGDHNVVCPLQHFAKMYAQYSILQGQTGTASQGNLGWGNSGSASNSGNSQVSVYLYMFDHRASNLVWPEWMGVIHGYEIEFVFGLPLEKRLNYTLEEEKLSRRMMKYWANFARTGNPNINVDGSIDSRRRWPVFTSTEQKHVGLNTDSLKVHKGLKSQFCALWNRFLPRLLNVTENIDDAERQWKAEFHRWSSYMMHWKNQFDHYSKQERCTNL

SMILES | IC50 (Acetylcholinesterase [1]) | IC50 [2] | IC50 (Butyrylcholinesterase [3]) | IC50 [4] | Ki (Butyrylcholinesterase [5]) | Ki (Acetylcholinesterase [6]) | IC50 (Acetylcholinesterase [7]) | IC50 (Cholinesterase)
C#CCNCc1cc2cc(OCc3ccccc3)ccc2[nH]1 | > 100 µM | 0.022 µM | 43 µM |  |  |  |  | 
CNCc1cc2cc(OCc3ccccc3)ccc2n1C | > 100 µM | 44.1 µM | 11 µM | 99.3 µM |  |  |  | 
C#CCN(C)Cc1cc2cc(OCc3ccccc3)ccc2n1C | > 100 µM |  | > 100 µM |  |  |  |  | 
CC#CCN(C)Cc1cc2cc(OCc3ccccc3)ccc2n1C | > 100 µM |  | > 100 µM |  |  |  |  | 
C=C=CCN(C)Cc1cc2cc(OCc3ccccc3)ccc2n1C | > 100 µM |  | 14 µM |  |  |  |  | 
C#CCN(C)Cc1cc2cc(OCc3ccccc3)ccc2[nH]1 | > 100 µM |  | 22 µM |  |  |  |  | 
CC#CCN(C)Cc1cc2cc(OCc3ccccc3)ccc2[nH]1 | > 100 µM |  | 7 µM |  | 7.1 µM |  |  | 
C#CCN1CCc2nc3ccccc3c(N)c2C1 | 1.5 µM | 617 µM | 6.6 µM | 241 µM |  |  |  | 
C#CCN1CCc2nc3nc(Cl)c(C#N)cc3c(N)c2C1 | 1.4 µM | 660 µM | > 100 µM | 1050 µM |  |  |  | 
C#CCN1CCc2nc3nc(OC)c(C#N)cc3c(N)c2C1 | 0.54 µM | > 100 µM | > 100 µM | 495 µM |  |  |  | 
C#CCN1CCc2nc3nc(N(C)C)c(C#N)cc3c(N)c2C1 | 0.029 µM | 281 µM | > 100 µM | 1000 µM |  |  |  | 
C#CCN1CCc2nc3nc(N4CCCC4)c(C#N)cc3c(N)c2C1 | 0.025 µM | 357 µM | 27 µM | 618 µM |  | 0.065 µM | 0.65 µM | 82 µM
C#CCN1CCc2nc3nc(N4CCCCC4)c(C#N)cc3c(N)c2C1 | 0.066 µM | 296 µM | 10 µM | 330 µM |  |  |  | 
